Assay results taken from ChEMBL document CHEMBL1140230, “Discovery of begacestat, a Notch-1-sparing gamma-secretase inhibitor for the treatment of Alzheimer's disease” (J Med Chem, 2008).
≈ marks a conversion by molar mass, not a printed value. Calls of active or inactive are those of the source. The rule behind the calls is not given here.

Legend:
[1] = Inhibition of gamma-secretase expressed in CHO cells expressing human recombinant APP assessed as amyloid beta40 […]; format: cell-based
Mus musculus [2] = experiment: Reduction of amyloid beta42 level in Tg2576 mouse brain at 10 mg/kg, po after 4 hrs; format: functional; design: scale not given: the % may be the effect or the level left
Mus musculus [3] = experiment: Reversal of cognitive deficits in contextual fear conditioning in Tg2576 mouse model at 10 mg/kg, po; format: functional, organism-based; design: dose 10 mg/kg
[4] = Metabolic stability in rat microsomes assessed as half life; format: ADME, Microsome
Mus musculus [5] = experiment: Reduction of amyloid beta40 level in Tg2576 mouse brain at 5 mg/kg, po after 4 hrs; format: functional; design: scale not given: the % may be the effect or the level left
[6] = Metabolic stability in dog microsomes assessed as half life; format: ADME, Canis lupus familiaris, Microsome
in vitro = settings: human, microsomes
Description: Metabolic stability in human microsomes assessed as half life

[7] = Selectivity ratio of EC50 for gamma-secretase to EC50 for mouse notch processing
[8] = Metabolic stability in Tg2576 mouse microsomes assessed as half life; format: ADME, Microsome
[9] = Dissociation constant, pKa of the compound; format: physicochemical
[10] = Metabolic stability in monkey microsomes assessed as half life; format: ADME, Macaca mulatta, Microsome; settings: rhesus monkey
Mus musculus [11] = experiment: Reduction of amyloid beta42 level in Tg2576 mouse brain at 5 mg/kg, po after 4 hrs; format: functional; design: scale not given: the % may be the effect or the level left
[12] = Apparent permeability from apical to basolateral side in human Caco-2 cells; format: ADME, cell-based
[13] = Solubility in Phosal PG50/Tween-80/water; format: physicochemical
[14] = Apparent permeability from basolateral to apical side in human Caco-2 cells; format: ADME, cell-based
Mus musculus [15] = experiment: Reduction of amyloid beta40 level in Tg2576 mouse brain at 100 mg/kg, po after 4 hrs; format: functional; design: scale not given: the % may be the effect or the level left
Mus musculus [16] = experiment: Reduction of amyloid beta42 level in Tg2576 mouse brain at 100 mg/kg, po after 4 hrs; format: functional; design: scale not given: the % may be the effect or the level left
[17] = Ratio of drug level in brain to plasma in Tg2576 mouse model; format: ADME
[18] = Membrane permeability by PAMPA assay; format: ADME; settings: read-out: permeability
Mus musculus [19] = organism: Mus musculus; experiment: Reversal of cognitive deficits in contextual fear conditioning in Tg2576 mouse model; format: functional, organism-based

Structure (SMILES)	IC50 [1] [nM]	half-life [4] [min]	half-life (in vitro) [min]	Ratio EC50 [7]	half-life [8] [min]	pKa [9]	also measured
CC[C@H](C)[C@@H](CO)NS(=O)(=O)c1ccc(Cl)cc1	5450	–	–	–	–	–	Activity (Mus musculus [2]): 25%; Activity (Mus musculus [3]): Active
CCC(CC)[C@@H](CO)NS(=O)(=O)c1ccc(Cl)cc1	294	–	–	14	–	–	–
O=S(=O)(N[C@@H](CO)C(C(F)(F)F)C(F)(F)F)c1ccc(Cl)s1	10700	–	–	3.7	–	–	–
CC[C@H](C)[C@@H](CO)NS(=O)(=O)c1ccc(Br)cc1	2210	–	–	–	–	–	Activity (Mus musculus [2]): 25%; Activity (Mus musculus [3]): Active
C[C@H](NC(=O)Cc1cc(F)cc(F)c1)C(=O)N[C@H](C(=O)OC(C)(C)C)c1ccccc1	–	–	–	–	–	–	Activity (Mus musculus [15]): 25%; Activity (Mus musculus [16]): 25%; Activity (Mus musculus [19]): Active
CC[C@H](C)[C@@H](CO)NS(=O)(=O)c1ccc(Cl)s1	297	–	–	–	–	–	–

Continued, in another order:

IC50 [1] [nM]	half-life [4] [min]	half-life (in vitro) [min]	Ratio EC50 [7]	half-life [8] [min]	pKa [9]	Structure (SMILES)	also measured
16	8	8	15	24	8.9	O=S(=O)(N[C@H](CO)C(CC(F)(F)F)CC(F)(F)F)c1ccc(Cl)s1	Activity (Mus musculus [5]): 27%; half-life [6]: 13 min; half-life [10]: 5 min; Activity (Mus musculus [11]): 22%
15	3	> 90	14	48	8.3	O=S(=O)(N[C@H](CO)C(C(F)(F)F)C(F)(F)F)c1ccc(Cl)s1 [BEGACESTAT]	Activity (Mus musculus [5]): 37%; half-life [6]: 31 min; half-life [10]: 26 min; Activity (Mus musculus [11]): 25%
25	1	8	10	2	9.6	CCC(CC)[C@@H](CO)NS(=O)(=O)c1ccc(Cl)s1 [GSI-136]	Papp A→B [12]: 50 ×10⁻⁶ cm/s; solubility [13]: 6700 µg/mL (≈ 21.5 mM); Papp B→A [14]: 43 ×10⁻⁶ cm/s; Activity (Mus musculus [15]): 25%; Activity (Mus musculus [16]): 25%; Kp [17]: 2; Papp [18]: 12.5 ×10⁻⁶ cm/s
